Source: ChEMBL document CHEMBL3596183, “Cytoprotective effects of hydrogen sulfide-releasing N-methyl-D-aspartate receptor antagonists are mediated by intracellular sulfane sulfur” (Medchemcomm, 2014)
The source made the active and inactive calls. No cut-off for these calls is given here.

How the values were obtained:
[1] = target: Transient receptor potential cation channel subfamily A member 1 (Rattus norvegicus, UniProt Q6RI86); test: Activation of TRPA1 in rat astrocytes assessed as induction of Ca2+ influx by calcium green-1/acetoxymethyl ester-based fluorescence assay; type: cell-based
Chain of Transient receptor potential cation channel subfamily A member 1 (Q6RI86 whole entry): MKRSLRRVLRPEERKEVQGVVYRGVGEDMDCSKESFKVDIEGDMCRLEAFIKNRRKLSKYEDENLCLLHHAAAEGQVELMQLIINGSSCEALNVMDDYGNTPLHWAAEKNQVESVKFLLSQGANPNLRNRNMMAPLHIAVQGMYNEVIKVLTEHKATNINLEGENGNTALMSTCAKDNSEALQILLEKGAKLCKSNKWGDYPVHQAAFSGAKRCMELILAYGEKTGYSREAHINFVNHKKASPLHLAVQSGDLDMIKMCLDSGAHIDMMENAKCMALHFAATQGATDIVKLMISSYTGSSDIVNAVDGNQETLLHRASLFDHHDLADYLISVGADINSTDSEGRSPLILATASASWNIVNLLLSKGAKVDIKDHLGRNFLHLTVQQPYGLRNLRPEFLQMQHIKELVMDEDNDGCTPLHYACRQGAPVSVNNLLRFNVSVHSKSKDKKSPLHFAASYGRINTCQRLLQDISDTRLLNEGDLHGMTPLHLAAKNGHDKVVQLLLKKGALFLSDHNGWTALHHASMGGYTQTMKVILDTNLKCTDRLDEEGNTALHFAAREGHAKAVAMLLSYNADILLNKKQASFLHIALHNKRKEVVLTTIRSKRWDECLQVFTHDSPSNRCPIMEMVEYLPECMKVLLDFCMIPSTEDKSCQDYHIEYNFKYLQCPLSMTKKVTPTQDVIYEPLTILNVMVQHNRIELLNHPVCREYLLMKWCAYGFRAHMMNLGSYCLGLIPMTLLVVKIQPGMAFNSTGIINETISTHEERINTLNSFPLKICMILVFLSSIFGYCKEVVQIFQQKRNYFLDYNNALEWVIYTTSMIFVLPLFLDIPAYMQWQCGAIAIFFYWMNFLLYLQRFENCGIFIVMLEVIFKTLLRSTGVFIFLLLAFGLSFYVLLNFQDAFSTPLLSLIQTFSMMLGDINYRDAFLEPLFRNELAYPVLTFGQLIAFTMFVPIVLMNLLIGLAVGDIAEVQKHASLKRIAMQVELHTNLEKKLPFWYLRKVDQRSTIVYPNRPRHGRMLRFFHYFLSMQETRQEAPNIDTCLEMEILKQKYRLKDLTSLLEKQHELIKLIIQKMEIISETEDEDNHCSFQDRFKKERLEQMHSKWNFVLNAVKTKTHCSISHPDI

[2] = tested on: SH-SY5Y; test: Increase in H2S level in human SH-SY5Y cells at 20 uM after 3 hrs by HSip-1 probe-based fluorescence assay; type: functional, cell-based

Compound | EC50 [1] [µM] | Activity [2]
S1SSSSSSS1 [SULFUR] | 116 | 
SSS | 0.091 | 
CC12CC3CC(C)(C1)CC(NC(=O)c1ccc(-c4cssc4=S)cc1)(C3)C2 |  | Active
O=C(NC12CC3CC(CC(C3)C1)C2)c1ccc(-c2cssc2=S)cc1 |  | Active
